Experimental data: ChEMBL document CHEMBL1649217, “Emergence of Klebsiella pneumoniae ST258 with KPC-2 in Poland” (2009)
In brackets after ≈: the same amount, converted by molar mass.

Columns and labels:
Type in all cases: functional
[1] = test system: Escherichia coli; assay: Antimicrobial activity against rifampicin-resistant Escherichia coli A15 transconjugant expressing beta-lactamase SHV-12 by Etest
[2] = test system: Klebsiella pneumoniae; assay: Antimicrobial activity against Klebsiella pneumoniae isolate 2641/08 obtained from urine of patient with ischemic cardiomyopathy and several comorbidities by Etest
[3] = test system: Escherichia coli; assay: Antimicrobial activity against rifampicin-resistant Escherichia coli A15 by Etest
[4] = test system: Escherichia coli; assay: Antimicrobial activity against rifampicin-resistant Escherichia coli A15 transconjugant expressing beta-lactamase KPC-2/TEM-1 by Etest
[5] = test system: Escherichia coli; assay: Antimicrobial activity against rifampicin-resistant Escherichia coli A15 transconjugant expressing beta-lactamase SHV-12 by Etest in presence of beta-lactamase inhibitor clavulanic acid
[6] = test system: Escherichia coli; assay: Antimicrobial activity against rifampicin-resistant Escherichia coli A15 by Etest in presence of beta-lactamase inhibitor clavulanic acid
[7] = test system: Escherichia coli; assay: Antimicrobial activity against rifampicin-resistant Escherichia coli A15 transconjugant expressing beta-lactamase KPC-2/TEM-1 by Etest in presence of beta-lactamase inhibitor clavulanic acid
[8] = test system: Klebsiella pneumoniae; assay: Antimicrobial activity against Klebsiella pneumoniae isolate 2641/08 obtained from urine of patient with ischemic cardiomyopathy and several comorbidities by Etest in presence of beta-lactamase inhibitor clavulanic acid; conditions: isolate 2641/08, Urine
[9] = test system: Klebsiella pneumoniae; assay: Antimicrobial activity against Klebsiella pneumoniae isolate 2337/08 obtained from patient with ischemic cardiomyopathy and several comorbidities
[10] = test system: Klebsiella pneumoniae; assay: Antimicrobial activity against Klebsiella pneumoniae isolate 2641/08 obtained from urine of patient with ischemic cardiomyopathy and several comorbidities by Etest in presence of beta-lactamase inhibitor Tazobactam; conditions: isolate 2641/08, Urine
[11] = test system: Escherichia coli; assay: Antimicrobial activity against rifampicin-resistant Escherichia coli A15 transconjugant expressing beta-lactamase KPC-2/TEM-1 by Etest in presence of beta-lactamase inhibitor Tazobactam
[12] = test system: Escherichia coli; assay: Antimicrobial activity against rifampicin-resistant Escherichia coli A15 by Etest in presence of beta-lactamase inhibitor Tazobactam
[13] = test system: Escherichia coli; assay: Antimicrobial activity against rifampicin-resistant Escherichia coli A15 transconjugant expressing beta-lactamase SHV-12 by Etest in presence of beta-lactamase inhibitor Tazobactam

What does the source list for CO/N=C(\C(=O)N[C@@H]1C(=O)N2C(C(=O)[O-])=C(C[N+]3(C)CCCC3)CS[C@H]12)c1csc(N)n1?
MIC [1]: 0.5 µg/mL (≈ 1.04 µM); MIC ([2]; isolate 2641/08, Urine): > 32 µg/mL; MIC [3]: 0.047 µg/mL (≈ 0.0978 µM); MIC [4]: 1.5 µg/mL (≈ 3.12 µM)

Which MIC [1] does the source give for NCC[C@H](O)C(=O)N[C@@H]1C[C@H](N)[C@@H](O[C@H]2O[C@H](CN)[C@@H](O)[C@H](O)[C@H]2O)[C@H](O)[C@H]1O[C@H]1O[C@H](CO)[C@@H](O)[C@H](N)[C@H]1O [AMIKACIN] here?
The MIC was 1 µg/mL (≈ 1.71 µM).

What about the MIC ([2]; isolate 2641/08, Urine) of the same compound?
Its MIC is 12 µg/mL (≈ 20.5 µM).

What about the MIC [3] of the same compound?
Its MIC is 1 µg/mL (≈ 1.71 µM).

What about the MIC [4] of the same compound?
Its MIC is 1.5 µg/mL (≈ 2.56 µM).

With CC1(C)S[C@@H]2[C@H](NC(=O)[C@H](N)c3ccc(O)cc3)C(=O)N2[C@H]1C(=O)O [AMOXICILLIN] as the compound, how does the MIC [5] read?
Its MIC is 4 µg/mL.

And the MIC [6]?
The MIC was 4 µg/mL.

And the MIC [7]?
The MIC was 24 µg/mL.

What about the MIC [8] of the same compound?
The MIC was greater than 256 µg/mL.

How did the MIC [1] turn out when CC1(C)S[C@@H]2[C@H](NC(=O)[C@H](N)c3ccccc3)C(=O)N2[C@H]1C(=O)O [AMPICILLIN] was run?
The MIC was greater than 256 µg/mL.

And the MIC ([2]; isolate 2641/08, Urine)?
Its MIC is greater than 256 µg/mL.

And the MIC [3]?
Its MIC is 3 µg/mL (≈ 8.59 µM).

And the MIC [4]?
Its MIC is greater than 256 µg/mL.

With CO/N=C(\C(=O)N[C@@H]1C(=O)N2C(C(=O)O)=C(COC(C)=O)CS[C@H]12)c1csc(N)n1 [CEFOTAXIME] as the compound, how does the MIC [1] read?
The MIC was 1.5 µg/mL (≈ 3.29 µM).

And the MIC ([2]; isolate 2641/08, Urine)?
The MIC was 128 µg/mL (≈ 281 µM).

What about the MIC [3] of the same compound?
The MIC was 0.047 µg/mL (≈ 0.103 µM).

What about the MIC [4] of the same compound?
The MIC was 2 µg/mL (≈ 4.39 µM).

Which MIC [1] does the source give for CC(C)(O/N=C(\C(=O)N[C@@H]1C(=O)N2C(C(=O)[O-])=C(C[n+]3ccccc3)CS[C@H]12)c1csc(N)n1)C(=O)O [CEFTAZIDIME] here?
Its MIC is 16 µg/mL (≈ 29.3 µM).

What about the MIC ([2]; isolate 2641/08, Urine) of the same compound?
The MIC was greater than 256 µg/mL.

What about the MIC [3] of the same compound?
Its MIC is 0.25 µg/mL (≈ 0.457 µM).

And the MIC [4]?
Its MIC is 3 µg/mL (≈ 5.49 µM).

Which MIC ([2]; isolate 2641/08, Urine) does the source give for O=C(O)c1cn(C2CC2)c2cc(N3CCNCC3)c(F)cc2c1=O [CIPROFLOXACIN] here?
The MIC was greater than 32 µg/mL.

For C[C@@H](O)[C@H]1C(=O)N2C(C(=O)O)=C(SCCNC=N)C[C@H]12 [IMIPENEM ANHYDROUS], which MIC [1] is on record?
Its MIC is 0.25 µg/mL (≈ 0.835 µM).

And the MIC [9]?
The MIC was 2 µg/mL (≈ 6.68 µM).

What about the MIC ([2]; isolate 2641/08, Urine) of the same compound?
Its MIC is 2 µg/mL (≈ 6.68 µM).

And the MIC [3]?
Its MIC is 0.25 µg/mL (≈ 0.835 µM).

What about the MIC [4] of the same compound?
The MIC was 3 µg/mL (≈ 10 µM).

With C[C@@H](O)[C@H]1C(=O)N2C(C(=O)O)=C(S[C@@H]3CN[C@H](C(=O)N(C)C)C3)[C@H](C)[C@H]12 [MEROPENEM] as the compound, how does the MIC [1] read?
The MIC was 0.047 µg/mL (≈ 0.123 µM).

And the MIC ([2]; isolate 2641/08, Urine)?
Its MIC is 3 µg/mL (≈ 7.82 µM).

And the MIC [3]?
Its MIC is 0.032 µg/mL (≈ 0.0834 µM).

What about the MIC [4] of the same compound?
The MIC was 0.75 µg/mL (≈ 1.96 µM).

Which MIC [10] does the source give for CCN1CCN(C(=O)N[C@@H](C(=O)N[C@@H]2C(=O)N3[C@@H]2SC(C)(C)[C@@H]3C(=O)O)c2ccccc2)C(=O)C1=O [PIPERACILLIN] here?
Its MIC is greater than 256 µg/mL.

And the MIC [1]?
Its MIC is 32 µg/mL (≈ 61.8 µM).

And the MIC ([2]; isolate 2641/08, Urine)?
The MIC was greater than 256 µg/mL.

And the MIC [3]?
The MIC was 1.5 µg/mL (≈ 2.9 µM).

And the MIC [11]?
The MIC was 48 µg/mL.

What about the MIC [12] of the same compound?
The MIC was 1 µg/mL.

And the MIC [13]?
Its MIC is 1 µg/mL.

And the MIC [4]?
Its MIC is 96 µg/mL (≈ 185 µM).

CN(C)[C@@H]1C(O)=C(C(N)=O)C(=O)[C@@]2(O)C(O)=C3C(=O)c4c(O)cccc4[C@@](C)(O)[C@H]3C[C@@H]12 [TETRACYCLINE] was tested. Which MIC [1] did it give?
The MIC was 1.5 µg/mL (≈ 3.38 µM).

What about the MIC ([2]; isolate 2641/08, Urine) of the same compound?
The MIC was 32 µg/mL (≈ 72 µM).

And the MIC [3]?
The MIC was 2 µg/mL (≈ 4.5 µM).

And the MIC [4]?
The MIC was 2 µg/mL (≈ 4.5 µM).

With CN(C)c1cc(NC(=O)CNC(C)(C)C)c(O)c2c1C[C@H]1C[C@H]3[C@H](N(C)C)C(O)=C(C(N)=O)C(=O)[C@@]3(O)C(O)=C1C2=O [TIGECYCLINE] as the compound, how does the MIC [1] read?
The MIC was 0.38 µg/mL (≈ 0.649 µM).

What about the MIC ([2]; isolate 2641/08, Urine) of the same compound?
The MIC was 3 µg/mL (≈ 5.12 µM).

And the MIC [3]?
The MIC was 0.38 µg/mL (≈ 0.649 µM).

What about the MIC [4] of the same compound?
Its MIC is 0.38 µg/mL (≈ 0.649 µM).

Which MIC [1] does the source give for COLISTIN here?
The MIC was 0.19 µg/mL.

What about the MIC [2] of the same compound?
The MIC was 0.38 µg/mL.

What about the MIC [3] of the same compound?
Its MIC is 0.25 µg/mL.

And the MIC [4]?
Its MIC is 0.25 µg/mL.

How did the MIC [1] turn out when GENTAMICIN was run?
Its MIC is 0.19 µg/mL.

And the MIC [2]?
Its MIC is 1 µg/mL.

What about the MIC [3] of the same compound?
Its MIC is 0.19 µg/mL.

What about the MIC [4] of the same compound?
The MIC was 0.25 µg/mL.
